Test results reported in ChEMBL document CHEMBL4312031, “Discovery of candesartan cilexetic as a novel neddylation inhibitor for suppressing tumor growth” (Eur J Med Chem, 2020).
Active and inactive are the calls of the source. The calls are words filed in the database; no cut-off is given here.

Columns and labels:
[1] = molecular target: T1, NEDD8/Cullin-1 (Homo sapiens) (UniProt Q13616+Q15843); experiment: Inhibition of Nedd8-cullin1 adduct formation in human A549 cells assessed as decrease in cullin1 neddylation at 100 uM incubated for 6 to 12 hrs by Western blot analysis; type: cell-based
T1 sequence (Q13616 whole entry, looked up): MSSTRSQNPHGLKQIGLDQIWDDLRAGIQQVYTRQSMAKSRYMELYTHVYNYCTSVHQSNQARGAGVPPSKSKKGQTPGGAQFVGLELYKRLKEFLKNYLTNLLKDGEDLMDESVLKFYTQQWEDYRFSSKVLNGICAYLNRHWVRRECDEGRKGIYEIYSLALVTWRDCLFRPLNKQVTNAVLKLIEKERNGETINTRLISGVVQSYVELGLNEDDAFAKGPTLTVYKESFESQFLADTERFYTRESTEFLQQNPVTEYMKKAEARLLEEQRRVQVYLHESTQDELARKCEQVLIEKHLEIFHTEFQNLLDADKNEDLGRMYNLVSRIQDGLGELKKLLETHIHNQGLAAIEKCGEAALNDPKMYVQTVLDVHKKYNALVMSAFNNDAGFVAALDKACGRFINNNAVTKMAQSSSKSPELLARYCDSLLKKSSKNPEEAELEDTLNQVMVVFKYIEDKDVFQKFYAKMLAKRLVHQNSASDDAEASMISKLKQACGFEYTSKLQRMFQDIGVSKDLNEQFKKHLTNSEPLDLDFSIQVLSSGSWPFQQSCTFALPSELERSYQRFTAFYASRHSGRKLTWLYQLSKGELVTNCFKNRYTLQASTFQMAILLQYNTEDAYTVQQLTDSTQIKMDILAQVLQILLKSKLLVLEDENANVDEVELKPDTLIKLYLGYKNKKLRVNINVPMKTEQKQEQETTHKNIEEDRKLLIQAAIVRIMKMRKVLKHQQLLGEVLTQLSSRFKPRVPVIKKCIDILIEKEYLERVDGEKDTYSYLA
T1 sequence (Q15843 whole entry, looked up): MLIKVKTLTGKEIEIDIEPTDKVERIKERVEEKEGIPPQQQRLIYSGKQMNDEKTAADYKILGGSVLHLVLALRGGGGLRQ

[2] = molecular target: T1, NEDD8/Cullin-1 (Homo sapiens); experiment: Competitive inhibition of Nedd8-cullin1 (unknown origin) adduct formation at 12.5 to 50 uM assessed as substrate Vmax by Lineweaver-Burk plot analysis; type: protein assay
[3] = test system: A549; experiment: Cell cycle arrest in human A549 cells assessed as accumulation at G1 phase at 50 uM measured after 24 hrs by propidium iodide/RNase A staining based flow cytometry analysis (reference value: 63.84 %); type: functional
[4] = test system: NCI-H1299; experiment: Antiproliferative activity against human H1299 cells measured after 48 hrs by CCK8 assay; type: functional, cell-based; conditions: NCI-H1299, 48 h
[5] = test system: A549; experiment: Induction of apoptosis in human A549 cells assessed as late apoptotic cells at 25 uM measured after 48 hrs by AnnexinV-FITC/propidium iodide staining based FACS analysis (reference value: 1.71 %); type: functional
[6] = molecular target: T2, NEDD8-conjugating enzyme Ubc12 (Homo sapiens) (UniProt P61081); experiment: Inhibition of UBC12 in human A549 cells assessed as decrease in Cullin1-Nedd8 adduct level measured after 6 to 12 hrs by Western blot analysis; type: cell-based
T2 sequence (whole entry): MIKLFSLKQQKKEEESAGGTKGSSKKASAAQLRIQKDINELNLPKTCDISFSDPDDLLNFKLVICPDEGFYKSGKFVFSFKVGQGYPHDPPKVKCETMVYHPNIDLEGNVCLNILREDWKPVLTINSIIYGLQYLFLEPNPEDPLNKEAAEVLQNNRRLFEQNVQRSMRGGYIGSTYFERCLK

[7] = molecular target: T2, NEDD8-conjugating enzyme Ubc12 (Homo sapiens); experiment: Inhibition of UBC12 in human A549 cells assessed as decrease in Cullin4a-Nedd8 adduct level at 50 uM measured after 6 to 12 hrs by Western blot analysis; type: cell-based
[8] = molecular target: T1, NEDD8/Cullin-1 (Homo sapiens); experiment: Competitive inhibition of Nedd8-cullin1 (unknown origin) adduct formation assessed as decrease in cullin1-Nedd8 adduct formation at 50 uM preincubated for 10 mins followed by ATP addition and measured after 30 mins by immunoblot analysis; type: protein assay
[9] = test system: A549; experiment: Cell cycle arrest in human A549 cells assessed as accumulation at sub-G1 phase at 50 uM measured after 24 hrs by propidium iodide/RNase A staining based flow cytometry analysis (reference value: 0.89 %); type: functional
[10] = molecular target: T1, NEDD8/Cullin-1 (Homo sapiens); experiment: Inhibition of Nedd8-cullin1 (unknown origin) adduct formation assessed as decrease in cullin1 neddylation at 50 uM preincubated for 10 mins followed by ATP addition and measured after 30 mins by immunoblot analysis; type: protein assay
[11] = test system: A549; experiment: Inhibition of cullin-RING ligase in human A549 cells assessed as accumulation of p27 level at 50 to 125 uM and measured after 6 to 12 hrs by Western blot analysis; type: cell-based
[12] = test system: A549; experiment: Effect on Ub-modified protein level in human A549 cells by Western blot analysis; type: functional, cell-based
[13] = molecular target: T3, NEDD8-conjugating enzyme UBE2F (Homo sapiens) (UniProt Q969M7); experiment: Inhibition of UBE2F in human A549 cells assessed as decrease in Cullin5-Nedd8 adduct level measured after 6 to 12 hrs by Western blot analysis; type: cell-based
T3 sequence (whole entry): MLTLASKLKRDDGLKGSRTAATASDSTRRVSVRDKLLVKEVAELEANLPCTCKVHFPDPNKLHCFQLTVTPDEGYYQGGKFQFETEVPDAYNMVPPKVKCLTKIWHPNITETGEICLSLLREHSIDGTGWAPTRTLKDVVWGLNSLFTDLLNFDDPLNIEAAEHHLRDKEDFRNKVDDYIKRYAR

[14] = test system: A549; experiment: Cell cycle arrest in human A549 cells assessed as accumulation at G2 phase at 75 uM measured after 24 hrs by propidium iodide/RNase A staining based flow cytometry analysis (reference value: 12.69 %); type: functional
[15] = test system: A549; experiment: Antitumor activity against human A549 cells xenografted in nude mouse assessed as decrease in tumor size at 30 mg/kg, ip qd measured after 22 days; type: functional, organism-based
[16] = test system: A549; experiment: Induction of apoptosis in human A549 cells assessed as increase in PARP cleavage at 50 to 100 uM by Western blot analysis; type: functional, cell-based
[17] = test system: A549; experiment: Antitumor activity against human A549 cells xenografted in nude mouse assessed as decrease in tumor weight at 30 mg/kg, ip qd measured after 22 days; type: functional, organism-based
[18] = test system: A549; experiment: Induction of apoptosis in human A549 cells assessed as early apoptotic cells at 50 uM measured after 48 hrs by AnnexinV-FITC/propidium iodide staining based FACS analysis (reference value: 2.19 %); type: functional
[19] = test system: A549; experiment: Induction of apoptosis in human A549 cells assessed as early apoptotic cells at 75 uM measured after 48 hrs by AnnexinV-FITC/propidium iodide staining based FACS analysis (reference value: 2.19 %); type: functional
[20] = test system: A549; experiment: Effect on SUMO1 level in human A549 cells by Western blot analysis; type: functional, cell-based
[21] = test system: A549; experiment: Antitumor activity against human A549 cells xenografted in nude mouse assessed as decrease in tumor size at 60 mg/kg, ip qd measured after 22 days; type: functional, organism-based
[22] = test system: A549; experiment: Antiproliferative activity against human A549 cells measured after 48 hrs by CCK8 assay; type: functional, cell-based; conditions: A549, 48 h
[23] = test system: A549; experiment: Cell cycle arrest in human A549 cells assessed as accumulation at sub-G1 phase at 25 uM measured after 24 hrs by propidium iodide/RNase A staining based flow cytometry analysis (reference value: 0.89 %); type: functional
[24] = molecular target: SUMO-conjugating enzyme UBC9 (Homo sapiens) (UniProt P63279); experiment: Inhibition of Ubc9 in human A549 cells assessed as reduction in protein sumoylation by measuring Ubc9-Sumo adduct formation at 50 to 100 uM by Western blot analysis; type: cell-based
Sequence of SUMO-conjugating enzyme UBC9 (Homo sapiens) (P63279 whole entry): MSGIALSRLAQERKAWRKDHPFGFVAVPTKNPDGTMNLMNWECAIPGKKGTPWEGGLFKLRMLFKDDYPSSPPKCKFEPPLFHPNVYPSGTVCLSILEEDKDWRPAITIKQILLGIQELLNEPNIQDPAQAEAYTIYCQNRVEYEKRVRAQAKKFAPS

[25] = test system: A549; experiment: Induction of apoptosis in human A549 cells assessed as early apoptotic cells at 25 uM measured after 48 hrs by AnnexinV-FITC/propidium iodide staining based FACS analysis (reference value: 2.19 %); type: functional
[26] = test system: T47D; experiment: Antiproliferative activity against human T47D cells measured after 48 hrs by CCK8 assay; type: functional, cell-based
[27] = molecular target: T2, NEDD8-conjugating enzyme Ubc12 (Homo sapiens); experiment: Inhibition of UBC12 in human A549 cells assessed as decrease in Cullin3-Nedd8 adduct level at 50 uM measured after 6 to 12 hrs by Western blot analysis; type: cell-based
[28] = molecular target: T2, NEDD8-conjugating enzyme Ubc12 (Homo sapiens); experiment: Inhibition of UBC12 in human A549 cells assessed as decrease in Cullin3-Nedd8 adduct level measured after 6 to 12 hrs by Western blot analysis; type: cell-based
[29] = test system: A549; experiment: Inhibition of cullin-RING ligase in human A549 cells assessed as accumulation of Wee1 level at 50 to 125 uM and measured after 6 to 12 hrs by Western blot analysis; type: cell-based
[30] = test system: HepG2; experiment: Antiproliferative activity against human HepG2 cells measured after 48 hrs by CCK8 assay; type: functional, cell-based; conditions: HepG2, 48 h

CCOc1nc2cccc(C(=O)OC(C)OC(=O)OC3CCCCC3)c2n1Cc1ccc(-c2ccccc2-c2nn[nH]n2)cc1 (stereo not given) [CANDESARTAN CILEXETIL]
inhibition [1]: Active
inhibition [2]: Active
Activity [3]: 60.18%
IC50 [4]: 45.1 µM
Activity [5]: 5.5%
inhibition [6]: Dose-dependent effect
inhibition [7]: Active
inhibition [8]: Active
Activity [9]: 20.35%
inhibition [10]: Active
inhibition [11]: Active
Activity [12]: Active
inhibition [13]: Dose-dependent effect
Activity [14]: 8.15%
Activity [15]: Active
Activity [16]: Active
Activity [17]: Active
Activity [18]: 11.77%
Activity [19]: 36.64%
Activity [20]: inactive
Activity [21]: Active
IC50 [22]: 63.9 µM
Activity [23]: 9.54%
inhibition [24]: inactive
Activity [25]: 4.1%
IC50 [26]: 64.3 µM
inhibition [27]: Active
inhibition [28]: Dose-dependent effect
inhibition [29]: Active
IC50 [30]: > 100 µM
